Series [1] relates to B cell activity (LPS), spleen mononuclear leukocytes. The experiment in a line: Mitogenic proliferation on spleen cell suspension, B (LPS). The class given is cell-based, C57BL-6 mice. An excerpt: (§1) Mitogenic lectin (mitogen) is a protein which binds and cross-links specific cells surface carbohydrate determinants, and will polyclonally stimulate lymphoid cells. Lymphocyte activation by either antigens or mitogens results in intracellular changes and the subsequent development into a lymphoblast. Mitogenic stimulation of lymphocytes in vitro is believed to mimic the series of events which occur in vivo following their stimulation by specific antigens. PHA, ConA, and PWM, LPS mitogens can be used as a measurement of T cell and B cell activity, respectively.
(§2) Briefly, spleen mononuclear leukocytes from C57BL-6 mice were incubated in the presence or absence of mitogens with or without tested drugs. After 72 hours or 5 days, ^3 H thymidine incorporation was recorded as an indication of cell transformation and proliferation.
(§3) 100 μl of a suspension of 2×10^6 cells/ml (2×10^5 cells/well) were incubated in presence of PHA or ConA or PWM or LPS at the following concentrations:
(§4) PHA=0.01% final concentration-0.001%
(§5) Cells were incubated in presence or absence of drugs for 72 hours. 0.5 or 1 μCi of tritiated thymidine (^3 H) was added per well the last 18 or 6 hours of incubation respectively. Cells were harvested and counted on a Beta counter.

Series [2] has as its system T cell response (mixed lymphocyte reaction). Kind of series: Mixed lymphocyte reaction (MLR) assay. It is filed as cell-based, C57B1/6 mice and DBA/2 mice. On the procedure:
(§6) Mixed lymphocyte reaction is an in vitro counterpart of the allograft rejection. Briefly, T cell response was obtained when cells taken from two inbred strains from two outbred individuals of any species were mixed in vitro in culture.
(§7) After 4 days incubation, ^3 H thymidine uptake and cytotoxicity assay (CTL) were performed.
(§8) 3 C57B1/6 mice and 3 DBA/2 mice wre killed and lymphocytes prepared using lympholyte M. The cell concentration was adjusted to 10×10^6 cell/ml for each lysis. DBA/2 cells were irradiated with 3000 Rads. 1 ml of the C57 cells+1 ml of the DBA/2 cells+1 ml of the drug at 3 different concentrations were incubated together for 5 days. Positive control was IL-2 at 15 ng/ml final. After 5 days, the CTL and MLR tests were carried out.
The cells were resuspended and 100 μl of cell suspension were deposited in each of the 96 wells in the plate, 50 μl of Thymidine at 20 μCi/ml was added for 6 hrs. The cells were then collected and counted using a beta counter.

In series [3] the test system is T cell activity (ConA), spleen mononuclear leukocytes. Kind of series: Mitogenic proliferation on spleen cell suspension, T (ConA). It is filed as cell-based, C57BL-6 mice.
Source text: as §1, §2, §3, §4, §5

The subject of series [4] is cytotoxic T lymphocytes, P815 target cells. The experiment in a line: Cytotoxic T lymphocytes (CTL) assay. It is filed as cell-based, C57B1/6 mice and DBA/2 mice. As to conditions: for activation at 10 µM / activation at 0.1 µM / activation at 0.001 µM: Mus musculus, P815, 120 h, read-out: CTL activity, % increase compared to IL2 (100%); for activation at 10 µM: at 10^-5 M; for activation at 0.001 µM: at 10^-9 M. On the procedure: as §6, §7, §8
P815 target cells were labelled with Cr^51. After labelling, the cells were resuspended to 5×10^4 cells/ml.
100 μl of target cells+100 μl Of T cells were incubated for 4 hrs and then 100 μl of supernatant was counted using a gamma counter.

In the next series the test system is immune system. To be noted: prior art; cited from earlier work.
For series [5] the following is noted: prior art; cited from earlier work.
Where [6] appears, read: at 10^-12 - 10^-6 (M), 4320 min.

Read-outs that look alike come from different tables or passages of the source.

For `CN(C)c1ncnc2c1ncn2CCCCCOC(=O)N[C@@H](CCCNC(=N)N)C(=O)O` [Compound #2, N,N-Dimethylaminopurinyl Pentoxycarbonyl L-Arginine], the “B (LPS) mitogenic proliferation” value in series [1] (concentration not given) stood at 0. Further, the MLR in series [2] (at 10^-7 - 10^-5 M) is recorded as 1.5 - 2 ×. The “T (ConA) mitogenic proliferation” value in series [3] (at 10^-8 - 10^-5 (M), 4320 min) was 2 - 4 ×. Also, in series [4] (concentration not given), the “CTL activity, % increase compared to IL2 (100%)” value (shortened to “CTL activity, % increase”) was 0 (less than 20%).

For `CNc1ncnc2c1ncn2CCCCCOC(=O)N[C@H](CCCNC(=N)N)C(=O)O` [Compound #3, N-Monomethylaminopurinyl Pentoxycarbonyl D-Arginine], the “B (LPS) mitogenic proliferation” value in series [1] (at 10^-8 - 10^-6 (M), 4320 min) is on record as 2 - 2.5 ×. Also, in series [2] (at 10^-9 - 10^-5 M), the MLR is 1.5 ×. In addition, the “T (ConA) mitogenic proliferation” value in series [3] (setting [6]) is given as 2 - 6 ×. In addition, the activation at 10 µM in series [4] was 20 to 40%.

As to `CNc1ncnc2c1ncn2CCCCCO` [Compound #3a, N-(6-N-Methyl-Aminopurin-9-yl)-pentanol], the MLR in series [2] (at 10^-9 - 10^-5 M) is 1.5 - 2.9 ×. Moreover, in series [4] (at 10^-9 - 10^-7 M), the “CTL activity, % increase” value is given as “+++ (60-80%)”.

Consider `N=C(N)NCCC[C@@H](NC(=O)OCCCCCn1cnc2c(N)ncnc21)C(=O)O` [Compound #5, Aminopurinyl Pentoxycarbonyl D-Arginine], for which the MLR in series [2] (at 10^-7 - 10^-5 M) is on record as 1.5 - 2 ×. The activation at 0.1 µM in series [4] (at 10^-7 M) was 20 to 40%.

Regarding `Nc1ncnc2c1ncn2CCCCCO` [Compound #5a, N-(6-Aminopurin-9-Yl) 5-Pentanol], in series [2] (at 10^-9 - 10^-6 M, 7200 min), the MLR is reported as 1.5 - 2 ×. In series [4] (at 10^-7 - 10^-5 M), the “CTL activity, % increase” value is given as “++ (40-60%)”.

Consider `N=C(N)NCCC[C@H](NC(=O)OCCCCCn1cnc2c(N)ncnc21)C(=O)O` [Compound #6, Aminopurinyl Pentoxycarbonyl L-Arginine], for which the MLR in series [2] (at 10^-9 - 10^-5 M) is reported as 1.5 - 3 ×. Moreover, in series [4], the activation at 0.001 µM lay within 60 to 80%.

As for `N=C(N)NCCC[C@@H](NC(=O)OCCCCCn1cnc2c(NN)ncnc21)C(=O)O` [Compound #7, Hydrazinopurinyl Pentoxycarbonyl D-Arginine], the “B (LPS) mitogenic proliferation” value in series [1] (concentration not given) is 0. Moreover, the MLR in series [2] (at 10^-9 - 10^-6 M, 7200 min) is 1.5 - 2 ×. Further, the “T (ConA) mitogenic proliferation” value in series [3] (at 10^-12 - 10^-8 (M), 4320 min) is given as 2 - 6 ×. Besides, the activation at 0.001 µM in series [4] is 60 to 80%.

`NNc1ncnc2c1ncn2CCCCCO` [Compound #7a, N-(6-Hydrazinopurin-9-yl) 5-Pentanol]: the MLR in series [2] (at 10^-9 - 10^-5 M, preliminary result) was 2 ×. The activation at 0.001 µM in series [4] (preliminary result) was above 80%.

`N=C(N)NCCC[C@H](NC(=O)OCCCCCn1cnc2c(NN)ncnc21)C(=O)O` [Compound #8, Hydrazinopurinyl Pentoxycarbonyl L-Arginine]: the MLR in series [2] (at 10^-9 - 10^-5 M) is 1.5 - 2 ×. In addition, the activation at 0.001 µM in series [4] is above 80%.

Regarding `N=C(N)NCCC[C@@H](NC(=O)OCCCCCn1cnc2c(Cl)ncnc21)C(=O)O` [Compound #9, Chloropurinyl Pentoxycarbonyl D-Arginine], the “T (ConA) mitogenic proliferation” value in series [3] (setting [6]) was 2 - 3.5 ×.

For `N=C(N)NCCC[C@@H](NC(=O)OCCCCCn1cnc2c(=O)[nH]cnc21)C(=O)O` [Compound #11, Hydroxypurinyl Pentoxycarbonyl D-Arginine], in series [2] (at 10^-7 - 10^-5 M), the MLR is reported as 2 - 2.5 ×. The activation at 0.1 µM in series [4] (at 10^-7 M) is 40 to 60%.

`OCCCCCn1cnc2cncnc21` [Compound #19, N-9-purinyl-5-pentanol] displayed an MLR in series [2] (concentration not given, preliminary result) of 0. The activation at 0.1 µM in series [4] (at 10^-7 M, preliminary result) is 40 to 60%.

Take `N=C(N)NCCC[C@@H](NC(=O)OCCCCCn1cnc2cncnc21)C(=O)O` [Compound #20, N-9-purinyl-7-pentyloxycarbonyl-D-arginine]: in series [4], the activation at 10 µM was in the range of 40 to 60%.

As to `COc1ncnc2c1ncn2CCCCCO` [Compound #51, N-(6-methoxypurin-9-yl) 5-pentanol], in series [2] (at 10^-9 - 10^-6 M, 7200 min), the MLR is reported as 1.5 - 2 ×. Further, in series [4] (at 10^-7 M), the activation at 0.1 µM lay in the range of 40 to 60%.

For the compound `OCCCCCn1cnc2c(S)ncnc21` [Compound #59, N-(6-Mercaptopurin-9-yl)-pentanol], the MLR in series [2] (at 10^-9 - 10^-5 M) is reported as 2 - 2.4 ×. In series [4], the activation at 0.001 µM lay within 40 to 60%.

Turning to `CSc1ncnc2c1ncn2CCCCCO` [Compound #60, N-(6,-N-Methylthiopurin-9-yl)-pentanol], the MLR in series [2] (at 10^-9 - 10^-5 M) is 1.7 - 2 ×. In addition, the activation at 0.1 µM in series [4] (at 10^-7 M) was in the range of 20 to 40%.

Take `OCCCCCn1cnc2c(Cl)ncnc21` [Compound #III, N-(6-Chloropurin-9-yl)-5-pentanol]: in series [2] (at 10^-9 - 10^-5 M), the MLR was 1.5 - 2.5 ×. Also, the activation at 0.1 µM in series [4] (at 10^-7 M) fell in the range of 60 to 80%.

Turning to `CN(C)c1ncnc2c1ncn2CCCCCO` [Compound #V, N-(6-N,N-Dimethylaminopurin-9-yl)-pentanol], the MLR in series [2] (at 10^7 - 10^5 M (so in the source)) is 1.5 - 2 ×. The activation at 0.1 µM in series [4] (at 10^-7 M) was 60 to 80%.

With `O=c1[nH]cnc2c1cnn2CCCCCO` [ST 689, allopurinol pentanol, reference compound], the immunomodulating activity entry in the series on immune system was “not significantly more immunostimulatory than ST 789”. This compound showed an MLR in series [2] (at 10^-5 M, preliminary result, 10 µM) of 1.6 ×. In addition, the “CTL activity, % increase” value in series [4] (at 10^-7 M, preliminary result) is on record as “++++ (80+)”.

`N=C(N)NCCC[C@H](NC(=O)OCCCCCn1cnc2c(=O)[nH]cnc21)C(=O)O` [ST 789, reference compound]: the “B (LPS) mitogenic proliferation” value in series [1] (at 10^-8 - 10^-5 (M), 4320 min) was 1.5 - 3 ×. Besides, the “stimulation of cytotoxic T lymphocytes (CD8+ T cells)” value in the series with immune system is given as “no indication”. Besides, the MLR in series [2] (at 10^-9 - 10^-5 M) is reported as 2 - 3 ×. Besides, the “T (ConA) mitogenic proliferation” value in series [3] (concentration not given) was found to be 0. For the same compound, in series [4] (at 10^-7 M), the activation at 0.1 µM was 40 to 60%.

Regarding `Oc1ncnc2[nH]ncc12` [allopurinol], in the series on immune system, the immunomodulating activity entry is “immunosuppressive”.

As to isoprinosine, in the series on immune system, the immunomodulating activity result was “not an effective immunomodulator”. In series [5], the toxicity result is “very nontoxic”.

The values are drawn from patent publication US5994361A, “Substituted purinyl derivatives with immunomodulating activity” (priority 1995, dated 1999).
